Some test systems named below: 786-0; A549; COLO 205; EKVX; HCT-15; HL-60; HOP-92; MCF7; NCI-H522; OVCAR-8; PC-3; RPMI-8226; SF-268; SF-295; SK-MEL-5; SN12C; SNB-19; T47D; TK-10; UACC-62.
Test in all cases: NCI anticancer screen, dose series, 48 h

Molecules are shown by their SMILES.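 Tested at 5 concentrations; 48 h exposure; 96-well plates; endpoints linearly interpolated, else capped at highest concentration. Abbreviation: GI50, concentration required for 50% inhibition of growth.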 Calls of active or inactive are those of the source. No stated cut-off is given here; in the data, active = GI50 up to about 1.1 µM and inactive = higher.

Take `CC(C)n1c2c(c3ccccc3c1=O)C(=O)c1ccccc1-2`: the GI50 in the experiment on 786-0 was > 100 µM (inactive); in the experiment with A549, > 100 µM (inactive); in the experiment on COLO 205 it was > 100 µM (inactive); in the experiment with EKVX, > 100 µM (inactive); in the experiment with HCT-15 it was greater than 100 µM; in the experiment on HL-60, > 100 µM (inactive). In addition, the GI50 with HOP-92, in the experiment on MCF7, in the experiment with NCI-H522, with OVCAR-8, in the experiment with PC-3 and in the experiment with RPMI-8226 was > 100 µM (inactive) in each case. For the same compound, the GI50 in the experiment with SF-268, in the experiment with SF-295, with SK-MEL-5, with SN12C, in the experiment on SNB-19 and in the experiment on T47D was > 100 µM (inactive) throughout. Further, the GI50 in the experiment on TK-10 and in the experiment on UACC-62 was > 100 µM (inactive) each time.

On to `CC(=O)Nc1ccc(Cc2ccc3nc(O)cc(C)c3c2)cc1`, for which the GI50 in the experiment with 786-0 is 24.3 µM (inactive); in the experiment on A549, > 100 µM (inactive); in the experiment on COLO 205 it was 57.4 µM (inactive); in the experiment on EKVX, 65.3 µM (inactive); in the experiment with HCT-15 it was greater than 100 µM; with HL-60, > 100 µM (inactive). Further, the GI50 in the experiment on HOP-92 is > 100 µM (inactive); with MCF7 it was 81.5 µM (inactive); in the experiment on NCI-H522, 48.8 µM (inactive); with OVCAR-8 it was > 100 µM (inactive); in the experiment with PC-3 it was 50.5 µM (inactive); in the experiment on RPMI-8226, 17.2 µM (inactive). In addition, the GI50 is > 100 µM (inactive) with SF-268; 29.9 µM (inactive) with SF-295; > 100 µM (inactive) in the experiment on SK-MEL-5; 64.6 µM (inactive) in the experiment with SN12C; 63.5 µM (inactive) in the experiment on SNB-19; 55.3 µM (inactive) in the experiment with T47D. Further, the GI50 in the experiment on TK-10 is 40.5 µM (inactive); with UACC-62, 31 µM (inactive).

Regarding `Cc1c(C)c(C)c(Cn2[nH]c(=O)n(C)c2=O)c(C)c1C`, the GI50 with 786-0 was > 100 µM (inactive); with A549, > 100 µM (inactive); in the experiment on COLO 205 it was > 100 µM (inactive); in the experiment with EKVX it was > 100 µM (inactive); with HCT-15 it was greater than 100 µM; in the experiment on HL-60, > 100 µM (inactive). Further, the GI50 with HOP-92, in the experiment with MCF7, in the experiment on NCI-H522, in the experiment on OVCAR-8, in the experiment on PC-3 and in the experiment on RPMI-8226 was > 100 µM (inactive) each time. For the same compound, the GI50 in the experiment with SF-268, in the experiment on SF-295, in the experiment on SK-MEL-5, in the experiment on SN12C, in the experiment with SNB-19 and in the experiment with T47D was > 100 µM (inactive) throughout. For the same compound, the GI50 with TK-10 and with UACC-62 was > 100 µM (inactive) throughout.

In the case of `CC(=O)CCCCn1c(=O)c2c(nc(Br)n2C)n(C)c1=O`, the GI50 with 786-0 is > 100 µM (inactive); with A549 it was > 100 µM (inactive); in the experiment on COLO 205, > 100 µM (inactive); in the experiment with EKVX, 28.3 µM (inactive); in the experiment on HCT-15, greater than 100 µM; with HL-60, > 100 µM (inactive). The GI50 in the experiment with HOP-92 was 11.7 µM (inactive); in the experiment with MCF7 it was > 100 µM (inactive); in the experiment with NCI-H522 it was 10.4 µM (inactive); with OVCAR-8, > 100 µM (inactive); in the experiment on PC-3 it was > 100 µM (inactive); in the experiment on RPMI-8226, > 100 µM (inactive). Further, the GI50 in the experiment on SF-268, with SF-295, in the experiment with SK-MEL-5, in the experiment on SN12C, in the experiment with SNB-19 and in the experiment with T47D was > 100 µM (inactive) each time. The GI50 with TK-10 and in the experiment with UACC-62 was > 100 µM (inactive) in each case.

On to `Nc1ncnc2c1ccn2C/C=C\CO`, for which the GI50 with 786-0 was > 100 µM (inactive); with A549, > 100 µM (inactive); in the experiment with COLO 205, > 100 µM (inactive); in the experiment with EKVX it was > 100 µM (inactive); with HCT-15 it was greater than 100 µM; in the experiment with HL-60, > 100 µM (inactive). In addition, the GI50 in the experiment on HOP-92 is > 100 µM (inactive); in the experiment on MCF7, > 100 µM (inactive); in the experiment on NCI-H522, 84.7 µM (inactive); in the experiment with OVCAR-8, > 100 µM (inactive); with PC-3, > 100 µM (inactive); with RPMI-8226, > 100 µM (inactive). For the same compound, the GI50 in the experiment with SF-268, with SF-295, in the experiment with SK-MEL-5, in the experiment on SN12C, in the experiment on SNB-19 and with T47D was > 100 µM (inactive) throughout. The GI50 with TK-10 and in the experiment on UACC-62 was > 100 µM (inactive) throughout.

Consider `CN1CCN(CCCBr)CC1`, for which the GI50 is > 100 µM (inactive) in the experiment on 786-0; > 100 µM (inactive) in the experiment with A549; > 100 µM (inactive) in the experiment with COLO 205; > 100 µM (inactive) with EKVX; greater than 100 µM in the experiment with HCT-15; > 100 µM (inactive) in the experiment with HL-60. For the same compound, the GI50 in the experiment with HOP-92, with MCF7, in the experiment with NCI-H522, with OVCAR-8, with PC-3 and in the experiment on RPMI-8226 was > 100 µM (inactive) throughout. Also, the GI50 in the experiment on SF-268, with SF-295, in the experiment on SK-MEL-5, in the experiment with SN12C, with SNB-19 and in the experiment with T47D was > 100 µM (inactive) throughout. Besides, the GI50 in the experiment on TK-10 and in the experiment on UACC-62 was > 100 µM (inactive) each time.

Regarding `CN1CCCN(C)C1c1cc([N+](=O)[O-])ccc1O`, the GI50 in the experiment with 786-0 is 33 µM (inactive); with A549 it was > 100 µM (inactive); in the experiment on COLO 205, 56.1 µM (inactive); with EKVX, 38.6 µM (inactive); in the experiment on HCT-15, 43.6 µM; with HL-60, 21.5 µM (inactive). Moreover, the GI50 is 20.2 µM (inactive) in the experiment with HOP-92; 19.8 µM (inactive) with MCF7; 33.9 µM (inactive) with NCI-H522; 35.6 µM (inactive) in the experiment with OVCAR-8; 23.6 µM (inactive) in the experiment on PC-3; 31 µM (inactive) in the experiment with RPMI-8226. In addition, the GI50 in the experiment with SF-268 was 34.2 µM (inactive); in the experiment on SF-295, 37.3 µM (inactive); in the experiment on SK-MEL-5, 19.7 µM (inactive); in the experiment with SN12C it was 31.6 µM (inactive); in the experiment with SNB-19, 30.8 µM (inactive); in the experiment on T47D, 47.6 µM (inactive). The GI50 with TK-10 is 56.1 µM (inactive); in the experiment with UACC-62, 16.6 µM (inactive).

Source of the values: ChEMBL document CHEMBL1201862, “PubChem BioAssay data set” (2004).
